# Several values for one entry are separate records, joined by “and”; a condition that tells them apart may be missing. Equal values may be shown once.
# System: epidermic stratum corneum cells
# Experiment: Tests for the ability to produce laminin 5 (culture of epidermic stratum corneum cells, sandwich ELISA)
# Type: cell-based, human
# Protocol: Epidermic stratum corneum cells were isolated from the human preputium and cultured in an epidermic cell growth medium (KGM) having a low calcium concentration. To this culture medium were added bovine pituitary extract and EGF. After the cells were cultured in KGM up to the fourth generation, and treated with trypsin and EDTA to suspend adherent cells. Then, the culture was filtered to remove cell aggregates and thereby obtain a homogeneous cell suspension. The cells were collected by centrifugation and resuspended in DMEM-F12 (2:1)-0.1% BSA so as to give a cell density of 8×10^4 per ml. 0.5 ml each of this cell suspension was added to 0.5 ml of the same medium containing a twofold concentration of each test sample. Using a 24-well plate, incubation was carried out at 37° C. for 24 hours. After completion of the incubation, the culture supernatant was transferred to an Eppendorf tube and centrifuged at 15,000 rpm for 5 minutes. The supernatant was transferred to a new tube and stored at−20° C. till the day for the determination of laminin 5. In order to solubilize laminin 5 in the cells and bound to the culture plastics, a tris-HCl buffer (pH 7.4) containing various surfactants was added to each well and allowed to stand at −20° C. overnight. On the following day, the mixture was ultrasonicated and frozen again. On the following day, the mixture was thawed again and centrifuged at 15,000 rpm for 5 minutes. The supernatant was transferred to a tube and stored at −20° C. till the day for the determination of laminin 5.
# Laminin 5 present in the culture supernatant and the cell layer was determined by the sandwich ELISA method. A monoclonal antibody (BM165) to the laminin α3 chain of laminin 5 was attached to a solid layer of a 96-well ELISA plate. In order to measure laminin 5 in a sandwiched manner, a monoclonal antibody (6F12) to the laminin β3 chain was previously biotinized (b-6F12) and used as the other antibody. […] A sample was added to each of the wells in which a 3% gelatin-phosphate buffer solution containing b-6F12 had previously been placed. The final degree of dilution of the sample in the wells was 1/4 for the culture medium and 1/10 for the cell layer. After the antigen-antibody reaction was carried out at 37° C. for 2 hours, the wells were washed, and an avidin HRP (horseradish peroxidase) solution was added thereto and reacted for a period of 30 minutes to 1 hour. After washing, a solution of ABTS serving as a substrate for HRP was added thereto and the absorbance at 405 nm was measured with an ELISA plate reader. A calibration curve was constructed over a range of 0 to 40 ng/ml.
# The yield of laminin 5 was expressed by the sum of the amount liberated into the culture medium and the amount remaining in the cell layer.
row,Substance,Relative yield of laminin 5 based on control with no addition (%) Mean ± Standard deviation
1,lysophosphatidic acid [LPA-C18: 1],225.4 ± 12.5% and 254.0 ± 8.7%
2,"lysophosphatidylcholine [LPC-C12: 0, reference compound]",88.6 ± 5.1%
3,lysophosphatidylcholine [LPC-C14: 0],100.8 ± 5.6%
4,lysophosphatidylcholine [LPC-C16: 0],104.5 ± 3.3%
5,lysophosphatidylcholine [LPC-C18: 0],112.4 ± 8.0%
6,lysophosphatidylcholine [LPC-C18: 1],112.7 ± 6.7% and 147.4 ± 5.2%
7,lysophosphatidylcholine [LPC-C18: 2],133.6 ± 1.3% and 174.0 ± 5.4%

# — US6544966B1, “Agents promoting laminin production in skin cells” (Shiseido Company, Ltd., priority 1998, dated 2003)
